We go through six compounds from patent US7960416B2, “Stable emulsion composition” (Takeda Pharmaceutical Company Limited, priority 2001, dated 2011).

The term IC50 denotes the concentration needed to halve the response being measured.

In the first assay the test system is NO production. Description: NO production-inhibiting effect in RAW264.7 cells (nitrite ion, DAN fluorescence). The class given is cell-based, Mouse. The following applies: Mus musculus; RAW264.7 cells stimulated with LPS 5 ng/ml and interferon gamma 1 U/ml; nitrite ion in culture supernatant; Compounds 1 and 3: minimum and maximum of 7 and 9 tests; read-out: IC50 (μM), NO production inhibition. As to the method: Mouse macrophage cell line RAW264.7 was used as an iNOS-inducible cell and a test compound was examined for its % inhibition of NO production. The test compound was dissolved at 10 mM in N,N-dimethylformamide and diluted with an RPMI-1640 medium at the concentration of 0.1 mM. The concentration was further adjusted using the medium so that a final concentration ranging from 10 μM to 10 nM could be obtained by a 10-fold serial dilution and the test compound was added to a culture medium. On the day before the experiment, the cell was adjusted at 5×10^5/ml in an RPMI-1640 medium supplemented with 10% inactivated fetal calf serum and inoculated to a 96-well microplate at 1×10^5 cells/0.2 ml per well. After incubating at 37° C. under an atmosphere of 5% CO2/95% air overnight, the test compound adjusted as described above was added and then LPS and interferon gamma were added at the final concentrations of 5 ng/ml and 1 U/ml, respectively. After further incubating overnight, culture supernatants were examined for the concentration of nitrite ion (stable metabolite of NO) which was used as an index for the NO production. The nitrite ion concentration was determined by adding 25 μl of 20 μg/ml of 2,3-diaminonaphthalene (DAN) to 50 μl of the culture supernatant, followed by incubating at room temperature for 10 minutes, followed by adding 25 μl of 0.5 N NaOH, followed by determining a fluorescence at 450 nm (excitation wavelength: 365 nm). An IC50 represents the concentration of the test compound which inhibits 50% of the NO production.
Take `CCOC(=O)C1=CCCCC1S(=O)(=O)Nc1ccc([N+](=O)[O-])cc1` (stereo not drawn) [Compound 5, ethyl 6-[N-(4-nitrophenyl)sulfamoyl]-1-cyclohexene-1-carboxylate]: the IC50 was 3.7 µM.

On to `CCOC(=O)C1=CCCCC1S(=O)(=O)Nc1ccc(Cl)cc1` (stereo not drawn) [Compound 30, ethyl 6-[N-(4-chlorophenyl)sulfamoyl]-1-cyclohexene-1-carboxylate], for which the IC50 turned out to be 0.54 µM. In the case of `CCOC(=O)C1=CCCCC1S(=O)(=O)Nc1cccc(Cl)c1` (stereo not drawn) [Compound 37, ethyl 6-[N-(3-chlorophenyl)sulfamoyl]-1-cyclohexene-1-carboxylate], the concentration for half-maximal inhibition (IC50) worked out at 0.13 µM. Consider `CCOC(=O)C1=CCCCC1S(=O)(=O)Nc1ccccc1CC` (stereo not drawn) [Compound 39, ethyl 6-[N-(2-ethylphenyl)sulfamoyl]-1-cyclohexene-1-carboxylate], for which the IC50 came out at 0.32 µM.

Staying with this assay, now noted: RAW264.7 cells stimulated with LPS 5 ng/ml and interferon gamma 1 U/ml; nitrite ion in culture supernatant; Compounds 1 and 3: minimum and maximum of 7 and 9 tests; read-out: IC50 (μM), NO production inhibition.
For the compound `CCOC(=O)C1=CCCCC1S(=O)(=O)Nc1ccc(F)cc1F` (stereo not drawn) [Compound 20, d-ethyl 6-[N-(2,4-difluorophenyl)sulfamoyl]-1-cyclohexene-1-carboxylate], the IC50 was 0.005 µM. Same read-out and setting: for “ethyl 7-[N-(2-chloro-4-fluorophenyl)sulfamoyl]-1-dycloheptene-1-carboxylate [Compound 65]” the value was 0.32 µM.
